In paper PMC12040169 (PLOS Biology, 2025):

assay: in vitro; details: human, hela cells, % viability

Structure (SMILES)	viability at 28.5 h, 10 µM [%]
CNC(=O)C1(Cc2cccc(-c3cccs3)c2)CCN(C(=O)c2ccccc2)CC1 [CBK285720]	88.3
O=C(c1ccc(F)cc1)N1CCC(c2cc3cnccc3[nH]2)CC1 [CBK283445]	87.3
CNC(=O)CN1CC[C@H]2NC(=O)c3ccccc3OCC/C=C/C[C@H]2C1 [CBK292049]	110
COc1ccccc1CN(C(=O)Nc1ccccc1Cl)C1CC1 [CBK298332]	97.2
CS(=O)(=O)N(CC(=O)NCc1ccccn1)c1ccc(I)cc1 [CBK265369]	78.8
CCOc1ccc(-c2ccnc(N3C[C@@H](C)O[C@@H](C)C3)n2)cc1C(=O)O [CBK306584]	92.5
Cc1ccc(NC(=S)N2CCN(C/C=C/c3ccccc3)CC2)cc1 [CBK264574]	98.9
Cc1noc(C)c1S(=O)(=O)Nc1nc(-c2cccnc2)cs1 [CBK067266]	91.5
O=C(CSc1ccccc1)Nc1cnc(-c2ccc(F)cc2)c(-c2ccco2)n1 [CBK037196]	101
CN(C)CCN(C)c1cncc(-c2cccs2)n1 [CBK065679]	108
CC(=O)N1CCC2(C/C=C/C[C@H]3CN(C(=O)C4CCC4)CC[C@H]3NC(=O)CNC2=O)CC1 [CBK292108]	105
CNC(=O)C1(Cc2ccc(-c3ccccc3)cc2)CCN(C(=O)c2cccc(OC)c2)CC1 [CBK285788]	105
Cc1nc(C)c(C(=O)NC2Cc3ccccc3C2)s1 [CBK200357]	91.2
O=C(N[C@H]1CCN2C(=O)c3cc(-c4cccs4)ccc3NC(=O)[C@@H]2C1)c1cnccn1 [CBK289559]	106
CC1CC(C)CN(C(=O)Cn2c(=O)n(C)c3ncccc32)C1 (stereo not shown) [CBK283794]	93.8
N#Cc1ccc(-n2ncc(-c3cccc(C(F)(F)F)c3)n2)cc1 [CBK112675]	90.9
O=C(NCc1cccc(C(F)(F)F)c1)N1CCN(CCN2CCOCC2)CC1 [CBK155671]	98.9
C1=CC2CC1CC2CN1CCN(Cc2cccnc2)CC1 (stereo not shown) [CBK027284]	100
CCC(C)CC(=O)NS(=O)(=O)c1cc(C#N)ccc1C (stereo not shown) [CBK306487]	88.1
Cc1ccc(N(CC(O)CN2CCCC2)S(=O)(=O)c2ccccc2)cc1 (stereo not shown) [CBK264739]	101
O=C(CCn1c(-c2cccnc2)cc2cccnc21)NC1CCCCC1 [CBK282647]	85.8
CC(C)Cc1ccc(-c2cc(Nc3ccc(O)cc3)ncn2)cc1 [CBK090754]	93.6

Structure (SMILES)	viability at 28.5 h, 10 µM [%]
OC1(c2cccnc2)C2CCCC1CN(Cc1cccc(F)c1F)C2 (stereo not shown) [CBK285205]	88.1
COC(=O)c1cc(-c2ccccc2)sc1NC(=O)c1cnccn1 [CBK268175]	93.5
Cc1ccc(C)c(C(=O)C2=C(O)C(=O)N(CCN(C)C)C2c2ccc(O)cc2)c1 (stereo not shown) [CBK265740]	102
CS(=O)(=O)c1cccc(S(=O)(=O)N2CCN(Cc3ccccc3)CC2)c1 [CBK269747]	88.9
COc1ccc([C@@]23CCC(NC(=S)NCc4ccccc4)C[C@@H]2N(Cc2ccccc2)CC3)cc1 (stereo partly shown) [CBK028140]	88
CCOC(=O)[C@@]12CC=CCN(C(=O)c3ccco3)[C@@H]1CCC2 [CBK284574]	104
CCc1ccc2c(c1)C(=O)CC1(CCN(C(=O)c3cc(OC)c(C)c(OC)c3)CC1)O2 [CBK168098]	112
O=C(O)c1ccc(-c2ccc(/C=c3\sc4nc5ccccc5n4c3=O)o2)cc1 [CBK261817]	99.3
CCC1CCCCN1C(=O)c1cc2ccccc2s1 (stereo not shown) [CBK074211]	85.3
Cc1n[nH]c(NN)c1Cl [CBK260876C]	89.5
Cc1coc(C)c1C(=O)CC1(O)C(=O)N(CCc2ccccc2)c2ccccc21 (stereo not shown) [CBK293975]	84.8
CC1CCc2c(sc3ncnc(OCC(=O)NC4CCCC4)c23)C1 (stereo not shown) [CBK305893]	83.1
CCc1nc2ccc(C(=O)N(C)C(C)C)cn2c1N(C)CCN1CCOCC1 [CBK146436]	95.2
CCC(=O)N[C@H]1CC[C@@]2(Cc3ccc(OC)cc3)CCN(C)[C@H]2C1 [CBK024126]	98.9
O=C(O)c1cc(NC(=O)c2ccc(Oc3ccc([N+](=O)[O-])cc3)cc2)cc(C(=O)O)c1 [CBK261188]	88.6
O=C(O)CCCC(=O)N1CCN2C(=O)c3cc(Br)ccc3NC(=O)[C@@H]2C1 [CBK289581]	100
CC1=C[C@@H](CNS(=O)(=O)c2ccccc2)[C@H](C(C)C)C[C@H]1CC(=O)N1CCCC1 [CBK289054]	122
CC(=O)Nc1ccc(NC(=O)[C@H]2CCCC[C@H]2C(=O)O)cc1 [CBK287073]	99.6
COc1ccccc1CNS(=O)(=O)c1ccccc1[N+](=O)[O-] [CBK261699]	102
O=C(CCn1cccn1)N1Cc2ccccc2CC1C1CCOCC1 (stereo not shown) [CBK282262]	83.8
O=C(COc1ccc2ccccc2c1Br)Nc1ccc(S(=O)(=O)N2CCCC2)cc1 [CBK264135]	99.3
CCc1nc2ccc(C(=O)NCCN3CCCC3)cn2c1N(C)C(=O)c1ccncc1 [CBK146655]	90.5

Structure (SMILES)	viability at 28.5 h, 10 µM [%]
CCS(=O)(=O)N1CCC(NC(=O)NC(C)c2ccccc2Cl)CC1 (stereo not shown) [CBK242304]	95.3
O=C(NCCNc1cnccn1)c1cncc(Br)c1 [CBK304278]	111
O=C(NC(=S)Nc1ccc(-c2nc3ccccc3o2)c(O)c1)c1cncc(Br)c1 [CBK264931]	97
Cc1nccn1CC1(O)CCN(Cc2ccc(F)c(F)c2)CC1 [CBK284955]	117
CC(=O)Nc1cccc(-c2nccnc2NCC(c2cccnc2)N(C)C)c1 (stereo not shown) [CBK037998]	95.6
CCOC(=O)N1CCN(CC(O)COc2cc(C)c(Cl)c(C)c2)CC1 (stereo not shown) [CBK033833C]	88.9
COCCNC(=O)c1nn(-c2cccc(C(C)C)c2)cc1O [CBK304884]	90.8
N#CC1(NC(=O)CN2CCOC(Cn3cccn3)C2)CCCC1 (stereo not shown) [CBK304911]	95.8
CCOc1c(CNCCN2CCOCC2)cccc1OC [CBK278182C]	103
CCSc1nnc(Cc2cc(=O)[nH]c(=O)[nH]2)n1-c1ccc(F)cc1 [CBK287500]	85.2
CN(C)C(=O)COc1cccc(Nc2nc(-c3cccc4ccccc34)cn3ccnc23)c1 [CBK037393]	82.1
Cn1c(CNc2ccc(C(=O)O)cc2)nc2ccccc21 [CBK262501]	95.1
Cc1cccc(NC(=O)NCc2ccccn2)c1 [CBK269422]	92.3
COCCN1C(=O)C2(CC(=O)N(CC(=O)C(C)(C)C)C2=O)c2ccccc21 (stereo not shown) [CBK075324]	118
Cc1cc(/C=C(/C#N)c2nc3ccccc3[nH]2)c(C)n1-c1ccc(N2CCOCC2)cc1 [CBK263792]	94
CC(NCCN1CCOCC1)=C1C(=O)c2ccccc2C1=O [CBK262691]	96.1
CCN(CC)C(=O)c1cccc(OC)c1 [CBK012105]	101
COc1ccc(C(=O)C=c2[nH]c(=O)c(=Cc3ccc(C(=O)O)cc3)s2)cc1 [CBK295614]	99.6
Cc1ccc(S(=O)(=O)N(CC(O)CN2C(=O)NC(C)(C)C2=O)c2ccccc2[N+](=O)[O-])cc1 (stereo not shown) [CBK263572]	95.3
O=C1Nc2ccccc2/C1=C/c1c[nH]cn1 [CBK115386]	92.8
O=C(O)C1CCCCN1Cc1ccccc1 (stereo not shown) [CBK261687]	94.9
COCC(=O)N1CCc2sccc2C1c1ccc(NC(=O)c2ccc(F)cc2)cc1 (stereo not shown) [CBK286435]	93.8

Structure (SMILES)	viability at 28.5 h, 10 µM [%]
COc1ccc(NC(=O)C2CC3CCC2C3)cc1S(=O)(=O)Nc1ccc(Cl)cc1 (stereo not shown) [CBK297945]	79.4
COC(=O)c1sccc1NS(=O)(=O)c1ccc(C(F)(F)F)cc1 [CBK200041]	95.5
O=C1CCC(=O)N1CCOc1nccnc1N1CCN(CCc2c[nH]c3ccccc23)CC1 [CBK084304]	95.5
Clc1ccc(OCCOc2cncc(N3CCCC3)n2)cc1 [CBK115668]	87.4
Cc1ccc(NC(=O)COc2ccccc2)c(NC(=O)c2ccco2)c1 [CBK266809]	95.6
CCCNCc1ccc(-c2nnn(CC(=O)NCc3ccc(C4CCC4)cc3)n2)cc1 [CBK167525C]	105
CC(C)(Oc1ccc(F)cc1)C(=O)N1CCC(C(=O)NCCc2ccccc2)C1 (stereo not shown) [CBK285702]	101
CC(C)(C)C(=O)c1cnc2sc3ccccc3n12 [CBK016512]	91.6
O=[N+]([O-])c1cnc(NS(=O)(=O)c2ccccc2Br)s1 [CBK067539]	96.2
Cc1c(C(=O)N2CCC(c3ccncc3)CC2)oc2ccccc12 [CBK282413]	109
COCCN1CCn2c(nc3cc(NC(=O)C4CCCCC4)ccc32)C1 [CBK307411]	112
Cc1cccc(C(=O)Nc2ccc(-c3nnc(-c4ccc(NC(=O)c5cccc(C)c5)cc4)o3)cc2)c1 [CBK261603]	106
Cc1nc2ncnn2c(C)c1CCC(=O)OCc1ccc(C#N)cc1 [CBK305838]	83.7
O=C(O)c1cc(/C=C/c2ccc(Br)cc2)nc2ccccc12 [CBK299805]	94.3
Cc1ccc(NC(=O)Cc2ccncc2)c(C)n1 [CBK200385]	90
CC1(C)CC(=O)C2=C(C1)Nc1ccccc1N(CC(=O)O)C2c1cccs1 (stereo not shown) [CBK286597]	83.6
CN(Cc1ccc(-c2ccc(S(C)(=O)=O)cc2)nc1)C1CCN(C(=O)Cc2cccc(C(F)(F)F)c2)CC1 [CBK164104T]	90.2
COc1ccc(N2Cc3ccccc3C2=O)cc1OC [CBK113666]	95.5
O=C(Nc1cccc2cc[nH]c12)c1cc(F)cc(Cl)c1 [CBK160075]	88.8
O=C(O)C1CCN(c2cncc(-c3ccc(F)cc3F)n2)CC1 [CBK065899]	95.2
CCc1nn(CC(=O)N(C)C)c(=O)c2cc3sccc3n12 [CBK284031]	91.3
CC(=O)OC(c1ccccc1)c1nc2ccccc2[nH]1 (stereo not shown) [CBK110141]	97.1
